Test results: ChEMBL document CHEMBL5370693, “Kinases Controlling Stability of the Oncogenic MYCN Protein” (ACS Med Chem Lett, 2023)

Experiments:
[1] = molecular target: T1, Phosphatidylinositol 3-kinase C2 domain-containing subunit gamma (Homo sapiens) (UniProt O75747); assay: Inhibition of PIK3C2G (unknown origin) assessed as remaining activity at 15 uM incubated for 1 hr by KINOMEscan competitive binding assay relative to control
T1 sequence (whole entry): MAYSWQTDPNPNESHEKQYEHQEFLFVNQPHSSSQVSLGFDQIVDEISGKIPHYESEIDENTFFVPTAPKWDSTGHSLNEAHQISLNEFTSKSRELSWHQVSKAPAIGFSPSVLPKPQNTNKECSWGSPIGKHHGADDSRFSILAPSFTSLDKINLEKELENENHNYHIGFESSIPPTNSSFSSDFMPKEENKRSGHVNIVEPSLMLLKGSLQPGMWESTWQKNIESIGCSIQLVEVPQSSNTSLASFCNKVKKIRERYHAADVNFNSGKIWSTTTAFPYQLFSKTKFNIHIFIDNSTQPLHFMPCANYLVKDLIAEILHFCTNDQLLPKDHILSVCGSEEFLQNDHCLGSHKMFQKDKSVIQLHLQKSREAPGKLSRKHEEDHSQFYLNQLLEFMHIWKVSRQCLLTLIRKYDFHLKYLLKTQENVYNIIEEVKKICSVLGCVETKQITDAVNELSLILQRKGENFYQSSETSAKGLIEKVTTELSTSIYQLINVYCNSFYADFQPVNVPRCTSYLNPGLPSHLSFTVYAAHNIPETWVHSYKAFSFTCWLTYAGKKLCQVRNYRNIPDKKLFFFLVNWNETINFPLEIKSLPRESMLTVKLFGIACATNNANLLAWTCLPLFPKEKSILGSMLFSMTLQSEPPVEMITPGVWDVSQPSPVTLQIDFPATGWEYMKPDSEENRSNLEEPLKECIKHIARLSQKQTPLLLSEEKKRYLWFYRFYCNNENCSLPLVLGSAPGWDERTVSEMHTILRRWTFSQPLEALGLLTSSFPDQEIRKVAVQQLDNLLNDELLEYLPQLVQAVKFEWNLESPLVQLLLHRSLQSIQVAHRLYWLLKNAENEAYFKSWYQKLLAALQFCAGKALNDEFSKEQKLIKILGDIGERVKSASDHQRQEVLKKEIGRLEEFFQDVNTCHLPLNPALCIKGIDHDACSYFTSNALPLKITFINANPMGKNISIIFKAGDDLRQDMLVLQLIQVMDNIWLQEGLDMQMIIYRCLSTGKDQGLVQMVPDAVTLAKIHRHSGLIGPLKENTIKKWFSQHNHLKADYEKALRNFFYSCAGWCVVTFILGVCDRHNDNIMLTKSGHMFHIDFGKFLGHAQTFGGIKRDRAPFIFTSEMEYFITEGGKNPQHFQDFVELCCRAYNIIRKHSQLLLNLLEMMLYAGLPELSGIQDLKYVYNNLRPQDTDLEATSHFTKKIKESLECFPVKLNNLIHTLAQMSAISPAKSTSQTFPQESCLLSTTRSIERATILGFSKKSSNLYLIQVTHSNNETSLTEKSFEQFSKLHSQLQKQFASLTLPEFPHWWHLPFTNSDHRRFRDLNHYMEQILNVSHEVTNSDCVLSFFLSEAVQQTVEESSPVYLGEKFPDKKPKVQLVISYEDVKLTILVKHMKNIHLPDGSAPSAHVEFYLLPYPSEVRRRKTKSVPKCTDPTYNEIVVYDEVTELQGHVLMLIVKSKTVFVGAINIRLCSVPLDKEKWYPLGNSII

[2] = molecular target: Casein kinase II subunit alpha (Homo sapiens) (UniProt P68400); assay: Inhibition of CSNK2A1 (unknown origin) assessed as remaining activity at 15 uM incubated for 1 hr by KINOMEscan competitive binding assay relative to control
Casein kinase II subunit alpha (Homo sapiens), sequence (P68400 whole entry, looked up, canonical isoform): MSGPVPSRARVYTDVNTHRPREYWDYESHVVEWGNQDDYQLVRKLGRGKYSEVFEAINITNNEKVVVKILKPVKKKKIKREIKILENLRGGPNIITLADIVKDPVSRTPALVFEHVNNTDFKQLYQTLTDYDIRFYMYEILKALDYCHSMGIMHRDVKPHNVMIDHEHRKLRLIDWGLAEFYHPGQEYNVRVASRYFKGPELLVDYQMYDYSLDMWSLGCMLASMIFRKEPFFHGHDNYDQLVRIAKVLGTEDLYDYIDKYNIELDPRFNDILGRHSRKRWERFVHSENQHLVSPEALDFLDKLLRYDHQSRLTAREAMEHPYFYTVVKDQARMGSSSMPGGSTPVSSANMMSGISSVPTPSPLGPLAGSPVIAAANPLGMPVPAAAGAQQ

[3] = tested on: Phosphatidylinositol 4,5-bisphosphate 3-kinase catalytic subunit alpha isoform (Homo sapiens), P42336 [E545K]; assay: Inhibition of PIK3CA E545K mutant (unknown origin) assessed as remaining activity at 15 uM incubated for 1 hr by KINOMEscan competitive binding assay relative to control
Phosphatidylinositol 4,5-bisphosphate 3-kinase catalytic subunit alpha isoform (Homo sapiens), P42336 [E545K], sequence (P42336 whole entry E545K, canonical isoform): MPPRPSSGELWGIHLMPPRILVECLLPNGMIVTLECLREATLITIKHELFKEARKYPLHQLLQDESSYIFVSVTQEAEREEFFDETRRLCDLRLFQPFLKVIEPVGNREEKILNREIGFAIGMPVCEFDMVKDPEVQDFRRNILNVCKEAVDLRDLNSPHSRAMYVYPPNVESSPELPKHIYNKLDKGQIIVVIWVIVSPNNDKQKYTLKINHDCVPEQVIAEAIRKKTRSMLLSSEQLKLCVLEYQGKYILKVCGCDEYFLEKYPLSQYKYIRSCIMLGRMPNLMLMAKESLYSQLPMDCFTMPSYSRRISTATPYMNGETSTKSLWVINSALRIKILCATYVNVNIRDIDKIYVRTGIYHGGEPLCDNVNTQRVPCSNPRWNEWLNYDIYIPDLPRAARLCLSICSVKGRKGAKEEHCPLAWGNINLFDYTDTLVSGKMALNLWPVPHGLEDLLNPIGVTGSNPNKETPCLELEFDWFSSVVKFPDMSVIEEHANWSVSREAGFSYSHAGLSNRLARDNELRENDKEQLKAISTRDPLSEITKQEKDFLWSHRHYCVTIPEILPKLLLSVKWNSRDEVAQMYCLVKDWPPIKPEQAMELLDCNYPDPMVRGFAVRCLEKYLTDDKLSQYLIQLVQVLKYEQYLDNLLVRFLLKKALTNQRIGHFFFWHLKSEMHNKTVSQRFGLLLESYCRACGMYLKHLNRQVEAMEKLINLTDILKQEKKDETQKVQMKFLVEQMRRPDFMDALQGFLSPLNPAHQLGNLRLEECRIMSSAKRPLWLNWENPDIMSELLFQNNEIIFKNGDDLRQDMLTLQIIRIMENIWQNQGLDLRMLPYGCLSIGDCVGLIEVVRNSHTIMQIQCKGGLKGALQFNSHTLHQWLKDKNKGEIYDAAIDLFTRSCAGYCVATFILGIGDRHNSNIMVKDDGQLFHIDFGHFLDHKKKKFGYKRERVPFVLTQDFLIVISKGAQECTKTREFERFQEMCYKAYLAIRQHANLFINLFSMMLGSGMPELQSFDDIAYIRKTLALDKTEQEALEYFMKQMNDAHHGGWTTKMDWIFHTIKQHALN

[4] = tested on: Phosphatidylinositol 4,5-bisphosphate 3-kinase catalytic subunit alpha isoform (Homo sapiens), P42336 [Q546K]; assay: Inhibition of PIK3CA Q546K mutant (unknown origin) assessed as remaining activity at 15 uM incubated for 1 hr by KINOMEscan competitive binding assay relative to control
Phosphatidylinositol 4,5-bisphosphate 3-kinase catalytic subunit alpha isoform (Homo sapiens), P42336 [Q546K], sequence (P42336 whole entry Q546K, canonical isoform): as the sequence (P42336 whole entry E545K, canonical isoform) above, with K545E, Q546K counted along it

[5] = molecular target: Phosphatidylinositol 4,5-bisphosphate 3-kinase catalytic subunit beta isoform (Homo sapiens) (UniProt P42338); assay: Inhibition of PIK3CB (unknown origin) assessed as remaining activity at 15 uM incubated for 1 hr by KINOMEscan competitive binding assay relative to control
[6] = molecular target: Serine/threonine-protein kinase 38-like (Homo sapiens) (UniProt Q9Y2H1); assay: Inhibition of NDR2 (unknown origin) assessed as remaining activity at 15 uM incubated for 1 hr by KINOMEscan competitive binding assay relative to control
Serine/threonine-protein kinase 38-like (Homo sapiens), sequence (Q9Y2H1 2-464 limits assumed): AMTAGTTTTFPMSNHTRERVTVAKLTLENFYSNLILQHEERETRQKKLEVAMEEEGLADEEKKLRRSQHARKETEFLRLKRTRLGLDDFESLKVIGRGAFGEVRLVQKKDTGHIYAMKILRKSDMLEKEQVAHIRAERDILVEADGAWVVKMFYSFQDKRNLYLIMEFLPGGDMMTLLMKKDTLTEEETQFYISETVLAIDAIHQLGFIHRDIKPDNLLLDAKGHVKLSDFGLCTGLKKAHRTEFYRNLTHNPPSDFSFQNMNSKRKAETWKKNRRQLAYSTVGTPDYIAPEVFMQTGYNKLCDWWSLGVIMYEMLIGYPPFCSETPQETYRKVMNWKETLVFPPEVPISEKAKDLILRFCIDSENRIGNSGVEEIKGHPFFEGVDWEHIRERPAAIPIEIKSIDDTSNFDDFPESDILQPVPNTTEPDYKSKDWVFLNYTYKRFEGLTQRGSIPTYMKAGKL

[7] = molecular target: T2, Serine/threonine-protein kinase Chk1 (Homo sapiens) (UniProt O14757); assay: Inhibition of CHEK1 (unknown origin) assessed as remaining activity at 15 uM incubated for 1 hr by KINOMEscan competitive binding assay relative to control
T2 sequence (whole entry): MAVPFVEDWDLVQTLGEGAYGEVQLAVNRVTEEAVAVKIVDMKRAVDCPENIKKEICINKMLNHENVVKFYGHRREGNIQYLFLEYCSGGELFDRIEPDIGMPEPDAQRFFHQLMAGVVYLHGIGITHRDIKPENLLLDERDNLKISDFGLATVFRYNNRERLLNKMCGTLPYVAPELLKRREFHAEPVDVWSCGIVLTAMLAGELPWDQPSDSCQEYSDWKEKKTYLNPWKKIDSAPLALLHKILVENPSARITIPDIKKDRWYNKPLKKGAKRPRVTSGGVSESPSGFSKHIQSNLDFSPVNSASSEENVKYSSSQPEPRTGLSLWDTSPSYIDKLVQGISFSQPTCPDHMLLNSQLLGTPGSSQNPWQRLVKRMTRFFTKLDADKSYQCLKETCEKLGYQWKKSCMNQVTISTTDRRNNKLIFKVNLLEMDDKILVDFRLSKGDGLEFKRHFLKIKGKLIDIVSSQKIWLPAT

[8] = molecular target: Serine/threonine-protein kinase Chk2 (Homo sapiens) (UniProt O96017); assay: Inhibition of CHEK2 (unknown origin) assessed as remaining activity at 15 uM incubated for 1 hr by KINOMEscan competitive binding assay relative to control
Serine/threonine-protein kinase Chk2 (Homo sapiens), sequence (O96017 whole entry, the tested form may be a part): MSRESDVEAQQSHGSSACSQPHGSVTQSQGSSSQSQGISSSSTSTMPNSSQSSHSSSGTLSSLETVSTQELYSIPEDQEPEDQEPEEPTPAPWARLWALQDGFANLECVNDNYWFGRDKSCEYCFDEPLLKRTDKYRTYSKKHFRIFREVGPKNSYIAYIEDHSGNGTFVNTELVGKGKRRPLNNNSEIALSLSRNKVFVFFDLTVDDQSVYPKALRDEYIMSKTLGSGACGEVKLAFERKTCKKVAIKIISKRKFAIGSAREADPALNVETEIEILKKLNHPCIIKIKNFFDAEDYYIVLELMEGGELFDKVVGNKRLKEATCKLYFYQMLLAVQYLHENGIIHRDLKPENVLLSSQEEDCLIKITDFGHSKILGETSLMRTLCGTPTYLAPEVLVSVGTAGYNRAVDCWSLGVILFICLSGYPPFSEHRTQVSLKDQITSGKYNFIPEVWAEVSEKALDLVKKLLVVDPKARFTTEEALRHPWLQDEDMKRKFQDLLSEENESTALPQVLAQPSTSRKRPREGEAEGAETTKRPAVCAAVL

[9] = molecular target: Phosphatidylinositol 4-phosphate 3-kinase C2 domain-containing subunit beta (Homo sapiens) (UniProt O00750); assay: Inhibition of PIK3C2B (unknown origin) assessed as remaining activity at 15 uM incubated for 1 hr by KINOMEscan competitive binding assay relative to control
[10] = tested on: Phosphatidylinositol 4,5-bisphosphate 3-kinase catalytic subunit alpha isoform (Homo sapiens), P42336 [M1043I]; assay: Inhibition of PIK3CA M1043I mutant (unknown origin) assessed as remaining activity at 15 uM incubated for 1 hr by KINOMEscan competitive binding assay relative to control
Phosphatidylinositol 4,5-bisphosphate 3-kinase catalytic subunit alpha isoform (Homo sapiens), P42336 [M1043I], sequence (P42336 whole entry M1043I, canonical isoform): as the sequence (P42336 whole entry E545K, canonical isoform) above, with K545E, M1043I counted along it

| SMILES | Activity [1] [%] | Activity [2] [%] | Activity [3] [%] | Activity [4] [%] | Activity [5] [%] | Activity [6] [%] | Activity [7] [%] | Activity [8] [%] | Activity [9] [%] | Activity [10] [%] |
| --- | --- | --- | --- | --- | --- | --- | --- | --- | --- | --- |
| CC(C)CCOc1ccc2c(=O)c(-c3ccc(O)c(O)c3)coc2c1 | 75 | 44 | 79 | 96 | 100 | 17 | 71 | 75 | 100 | 77 |
| CC(C)CC(=O)Oc1ccc2occ(-c3ccc(O)c(O)c3)c(=O)c2c1 | 57 | 14 | 66 | 84 | 92 | 48 | 88 | 76 | 91 | 85 |
